How the values were obtained:
[1] = tested on: human CD4+ T cells; assay: Effect of carboxypeptidase M inhibition on cytokine secretion in CD4+ T cells (CBA); format: cell-based; settings: resting and activated CD4+ T cells, 36 hours
Description: FIG. 12A. Effect of carboxypeptidase M (CPM) inhibition on cytokine secretion in resting and activated CD4+ T cells. CD4+ T cells (2.5×10^5) were activated as depicted for 36 hours and supernatants assayed for Th1/2/17 cytokines using CBA. Cells were treated with either C5aR/C5L2 double receptor antagonist (dRA; 7 μM), C5aR antagonist (PMX53; 10 μM), with or without a carboxypetidase M inhibitor (CPMi) or activated in media without any addition as a first control (non-treated, NT) or with a control peptide that lacks activity towards C5a and C5L2 as a second control (Control). The effect of antagonist treatment was assessed in non-activated T cells (white bars), as well as T cells activated with 0.25 μg plate-bound anti-CD3 (light grey bars), anti-CD3/28 (dark grey bars) or anti-CD3/46 (black bars). Data represent n=4 with standard error of the mean indicated. Bar graphs showing effect of CPMi on secretion of IL-17, IFN-γ, and TNFα by resting and activated CD4+ T cells. FIG. 12B. […]
CD4^+ T cells and CD14^+ monocytes were cultured in medium (RPMI-1640 medium (Sigma-Alich, Suffolk, UK), supplemented with 1% GlutaMAX, 1% penicillin/streptomycin (both Life Technologies, Paisley, UK) and 10% FBS (HyClone Laboratories, Logan, Utah). In the case of T cells media was supplemented with 25 U/ml IL-2 (Sigma-Aldrich; or with concentrations indicated in figure legends). CD4^+ T cells (2.5×10^5) were cultured alone or together with plate-bound anti-CD3 (OKT3, Biolegend, San Diego, Calif.), anti-CD3 and anti-CD28 (CD28.2, BD Pharmingen, San Jose, Calif.) or anti-CD3 and anti-CD46 (TRA-2-10, provided by John Atkinson, Washington University, St Louis, Mo.) all immobilised onto 48-well plates at concentrations of 2 μg/ml PBS overnight at 4° C. […] Cells were cultured at 37° C. and 5% CO2 and cytokine secetion assessed at 12, 24 or 36 h post activation.
The Th1/Th2/Th17 Cytometric Bead Array (BD Bioscience) was used to quantify cytokine production by CD4^+ T cells and monocytes following 12 or 36 h culture under distinct activation conditions. […]

[2] = tested on: human CD4+ T cells; assay: Rescue of CPM inhibitor-mediated increase in IFN-γ production by CD4+ T cells; format: cell-based; settings: 24 h post activation, FIG. 13
Description: FIG. 13. Serum-purified C5adesArg can partially rescue carboxypeptidase M inhibitor (CPM)-mediated increase in IFN-γ production by CD4+ T cells. Purified human CD4+ T cells were activated with depicted immobilized antibodies in media, or in media with the addition of a CPM inhibitor with or without either serum-purified C5a or C5adesArg. IFN-γ production by cells was assessed 24 h post activation using the CBA Cytokine Bead Array ([…]). Data (±SD) are from three experiments (n=3). *, p<0.05; (student's paired t-test).
The ability of serum-purified C5adesArg to rescue carboxypeptidase M inhibitor (CPM)-mediated increase in IFN-γ production by CD4+ T cells was determined. Purified human CD4^+ T cells were activated in media, or in media with the addition of a CPM inhibitor with or without either serum-purified C5a or C5adesArg. IFN-γ production by cells was assessed 24 h post activation using the CBA Cytokine Bead Array. […] However, the increase in IFN-γ production was markedly lower when C5adesArg was present than when C5a was present and also markedly lower than in the absence of both C5a and C5adesArg. Addition of purified C5adesArg but not C5a reduced CPM inhibitor-induced increase in IFN-γ by about 25%.

[3] = tested on: CD14+ monocytes; assay: Pro-inflammatory cytokine release by monocytes (CBA); format: cell-based, human; settings: resting and Flagellin-stimulated monocytes; 36 hours; dRA 7 μM, PMX53 10 μM; FIG. 9
Description: FIG. 9. C5L2 blockade induces pro-inflammatory cytokine release by human monocytes. CD14+ monocytes (2.5×10^5) were cultured for 36 hours and supernatants assayed for cytokines using CBA. Monocytes were treated with either C5aR/C5L2 double receptor antagonist (dRA; 7 μM), C5aR antagonist (PMX53; 10 μM) or control (non-treated). The effect of antagonist treatment was assessed on non-activated monocytes (white bars) as well as monocytes activated with 1 μg/ml of either Flagellin (light grey bars) or 100 ng/ml LPS (dark grey bars). Data represent n=4 experiments with SEM indicated. Statistical testing was not conducted as insufficient experimental repeats were performed to assume normal distribution. Asterisk denotes that the median value was 10,400 pg/ml.
Human blood was obtained from healthy volunteers following ethical guidelines set by Kings College London (KCL) ethics committee (REC: 09/H0804/72). PBMCs were isolated by density centrifugation (Ficoll-Paque PLUS; GE healthcare, Uppsala, Sweden). […]
The Th1/Th2/Th17 Cytometric Bead Array (BD Bioscience) was used to quantify cytokine production by CD4^+ T cells and monocytes following 12 or 36 h culture under distinct activation conditions. […] IL-1β amounts secreted into the cell media were measured by ELISA, according to the manufacturer's protocol (R&D Systems, Abingdon, UK).

[4] = tested on: human CD4+ T cells; assay: Cytokine secretion by CD4+ T cells with C5aR or C5aR/C5L2 blockade (Cytometric Bead Array); format: cell-based
Excerpt: Human blood was obtained from healthy volunteers following ethical guidelines set by Kings College London (KCL) ethics committee (REC: 09/H0804/72). PBMCs were isolated by density centrifugation (Ficoll-Paque PLUS; GE healthcare, Uppsala, Sweden). Cell subsets were isolated by magnetic separation following manufacturer's instructions (Miltenyi Biotec, Auburn, Calif.). Monocytes were positively selected using anti-CD14 microbeads (average purity 97%) and CD4^+ T cells were isolated from the CD14-negative fraction using anti-CD4 microbeads (average purity 98%). Alternatively, CD4^+ T cells were isolated from purified PBMCs by cell sorting after staining with antibodies to CD14 and CD4 and CD3.
CD4^+ T cells and CD14^+ monocytes were cultured in medium (RPMI-1640 medium (Sigma-Alich, Suffolk, UK), supplemented with 1% GlutaMAX, 1% penicillin/streptomycin (both Life Technologies, Paisley, UK) and 10% FBS (HyClone Laboratories, Logan, Utah). In the case of T cells media was supplemented with 25 U/ml IL-2 (Sigma-Aldrich; or with concentrations indicated in figure legends). CD4^+ T cells (2.5×10^5) were cultured alone or together with plate-bound anti-CD3 (OKT3, Biolegend, San Diego, Calif.), anti-CD3 and anti-CD28 (CD28.2, BD Pharmingen, San Jose, Calif.) or anti-CD3 and anti-CD46 (TRA-2-10, provided by John Atkinson, Washington University, St Louis, Mo.) all immobilised onto 48-well plates at concentrations of 2 μg/ml PBS overnight at 4° C. Monocytes (2.5×10^5) were cultured either alone or in the presence of LPS or Flagellin (1 μg/ml). […] Cells were cultured at 37° C. and 5% CO2 and cytokine secetion assessed at 12, 24 or 36 h post activation.
The Th1/Th2/Th17 Cytometric Bead Array (BD Bioscience) was used to quantify cytokine production by CD4^+ T cells and monocytes following 12 or 36 h culture under distinct activation conditions. Samples were processed following manufacturer's instructions and acquired using BD FACScan. IL-1β amounts secreted into the cell media were measured by ELISA, according to the manufacturer's protocol (R&D Systems, Abingdon, UK).

[5] = activated CD4+ T cells, dRA 7 μM, PMX53 10 μM, FIG. 6

CPMi: carboxypetidase (CP) A and B inhibitor, which also effectively inhibits CPM (Sigma CO279; 25 nM) (QQHADPICNKPCKTHDDCSGAWFCQACWNSARTCGPYVG)
effect on IFN-γ secretion ([1]; FIG. 12A): may also be present | secretion of IL-17 ([1]; control cells, untreated cells and with C5aR antagonist, FIG. 12A): increased secretion | secretion of IL-6 ([1]; control cells, untreated cells and with C5aR antagonist, FIG. 12B): increased secretion | IFN-γ production ([2]; all activation conditions): increased IFN-γ production

PMX53 [reference compound]
secretion of IL-6 [3]: no effect | secretion of IFN-γ [4, 5]: no effect | secretion of IL-17 [4, 5]: no effect | secretion of IL-6 ([4]; resting and activated CD4+ T cells, FIG. 7A): no effect

B1: C5adesArg: serum-purified C5a lacking the C-terminal Arg; naturally occurring agonist of C5L2 (protein)
chain: TLQKKIEEIAAKYKHSVVKKCCYDGACVNNDETCEQRAARISLGPRCIKAFTECCVVASQLRANISHKDMQLG
reduction of CPM inhibitor-induced increase in IFN-γ ([2]; serum-purified protein added with CPM inhibitor): about 25%
